For orientation: Papp means a coefficient for how fast a substance crosses the barrier.

SMILES strings stand for the structures. Square brackets hold non-standard residues; d marks the D form. Peptide text beside a SMILES is read from it. ξ: configuration not given here. ξLac(3-iPr) = CC(C)CC(O)C(=O)O; NMeV = CN[CH](C(=O)O)C(C)C; NMeA = CN[CH](C)C(=O)O; βAla = NCCC(=O)O

The conditions of the data set: pampa; pH 5.0; 30.0 min; 50.0 µM.

`CC(C)(C)CN1CCNc2cc(Nc3ccccc3)ncc2C1` came in with a Papp of 42.2 ×10⁻⁶ cm/s. In the case of `Cc1ccc(NC(=O)C(Cc2ccccc2)NS(=O)(=O)c2cccs2)cc1Cl` (centres undefined) it was 570 ×10⁻⁶ cm/s; in that of `COc1ccc(-n2nc(C3CCN(C(=O)C4CC4)CC3)[nH]c2=O)cc1`, 130 ×10⁻⁶ cm/s. `c1ccc(Nc2cc3c(cn2)CN(Cc2cccs2)CCN3)cc1`: the Papp came out at 106 ×10⁻⁶ cm/s. In the case of `O=C(O)c1cccc(-c2noc(-c3ccccc3F)n2)c1` it was 892 ×10⁻⁶ cm/s. The compound `COc1ccccc1C(=O)Nc1nnc(SCc2cc(=O)c3ccccc3[nH]2)s1` returned an apparent permeability coefficient (Papp) of 402 ×10⁻⁶ cm/s. Take `COc1ccc(S(=O)(=O)N(CC(=O)Nc2ccc(C)cc2)c2ccc(C)cc2)cc1OC`: the Papp came out at 663 ×10⁻⁶ cm/s.

Regarding `CCOc1ccc(-c2nnc(SCC(=O)NCc3ccccc3Cl)o2)cc1`, the Papp was found to be 2 ×10⁻⁶ cm/s. In the case of `CCOc1ccc(OCC)c(NC(=O)C(NS(=O)(=O)c2ccc(Br)s2)c2ccccc2)c1` (centres undefined) it was 637 ×10⁻⁶ cm/s.

On to `COc1cccc(N2CCN(c3ncc4c(n3)CCN(Cc3ccc(Br)cc3)C4)CC2)c1`, for which the apparent permeability (Papp) is 939 ×10⁻⁶ cm/s. For `CCS(=O)(=O)c1ncc(N(Cc2ccc(F)cc2)Cc2ccco2)c(C(=O)Nc2cc(C)ccc2C)n1` the value was 696 ×10⁻⁶ cm/s.

`Cc1ccc(C(=O)N2CCc3c(nc4cc(-c5ccccc5)[nH]n4c3=O)C2)cn1` had an apparent permeability (Papp) of 1.2 ×10⁻⁶ cm/s.

Consider `COC(=O)[C@@H]1C[C@H](OC(C)=O)C(=O)[C@H]2[C@@]1(C)CC[C@H]1C(=O)O[C@H](c3ccoc3)C[C@]21C`, for which the apparent permeability coefficient (Papp) was 381 ×10⁻⁶ cm/s. Compound `CC(C)(C)c1ccc(C(=O)Nc2ccc3c(c2)CCCN3C(=O)c2cccs2)cc1` had a Papp of 884 ×10⁻⁶ cm/s. As to `CCOC(=O)NNc1ccc(N(CC)CC(C)O)nn1` (centres undefined), the Papp was 8.57 ×10⁻⁶ cm/s. As to `COc1ccc(NC(=O)c2ccc[nH]2)cc1S(=O)(=O)Nc1ccc(Br)cc1`, the Papp is greater than 1000 ×10⁻⁶ cm/s. In turn, `Oc1ccccc1CN1CCNc2cc(Nc3ccccc3)ncc2C1` registered an apparent permeability coefficient (Papp) of 23.1 ×10⁻⁶ cm/s. The compound `CCC(CC)c1cc([C@H]2CN3CC[C@H]2C[C@@H]3CNS(=O)(=O)c2cccs2)nc(-c2ccncc2)n1` had a Papp of 750 ×10⁻⁶ cm/s.

Turning to `Cc1nc(-c2ccccc2)cc([C@H]2CN3CC[C@H]2C[C@@H]3CNC2CCOCC2)n1`, the apparent permeability (Papp) was 12.9 ×10⁻⁶ cm/s.

As to `O=C1CN(C(=O)CCC(=O)N2CCc3c(nc4cc(-c5ccccc5)[nH]n4c3=O)C2)c2ccccc2N1`, the apparent permeability coefficient (Papp) came to 6.84 ×10⁻⁶ cm/s. As for `Cc1c(C)n(Cc2ccccc2)c2ccc(C(=O)OCCN(C)C)cc12`, the Papp is greater than 1000 ×10⁻⁶ cm/s. Compound `O=C(CSc1nc(-c2ccc(F)cc2)[nH]c1-c1ccc(F)cc1)Nc1ccc2c(c1)OCCO2` gave an apparent permeability (Papp) of 585 ×10⁻⁶ cm/s. Compound `CCCCCn1cc2c(c1-c1ccc(Br)cc1)c(=O)n(C)c(=O)n2C` registered an apparent permeability (Papp) of 946 ×10⁻⁶ cm/s. On to `CCOc1ccc(S(=O)(=O)NCc2cccnc2)cc1NC(=O)c1ccccc1F`, for which the Papp turned out to be 278 ×10⁻⁶ cm/s. As for `Cc1ccc(NC(=O)c2cc(-c3ccc[nH]3)n[nH]2)cc1F`, the apparent permeability coefficient (Papp) was 235 ×10⁻⁶ cm/s.

With `CCOC(=O)c1[nH]c(C)c(CCC(=O)N2CCN(c3cc(C)ccc3C)CC2)c1C`, the Papp is greater than 1000 ×10⁻⁶ cm/s.

As to `O=C(NCCCNc1nc(Nc2cccc(NC(=O)N3CCCC3)c2)ncc1I)c1cccs1`, the Papp came out at 234 ×10⁻⁶ cm/s. In the case of `COc1ccc(OC)c(CNc2ncnc3onc(C)c23)c1` it was 250 ×10⁻⁶ cm/s. On to `Cc1ccc(C(=O)NC2CCN(c3cnn(CC4CC4)c(=O)c3)CC2)cc1C`, for which the Papp was determined as 498 ×10⁻⁶ cm/s. Regarding `COc1cc(NC(=O)c2nc3ccccc3n(C)c2=O)cc(OC)c1OC`, the Papp was 151 ×10⁻⁶ cm/s. In the case of `N#Cc1cccc(NC(=O)c2sc3nc4c(cc3c2N)N2CCC4CC2)c1` it was 285 ×10⁻⁶ cm/s; in that of `CCOc1ccc(-c2cn3c(n2)sc2cc(C(=O)NCCCN(CC)CC)ccc23)cc1`, 114 ×10⁻⁶ cm/s. The compound `COc1cc(Cl)c(C)cc1Nc1c2c(nc3ccccc13)CCC2` returned a Papp greater than 1000 ×10⁻⁶ cm/s.

On to `NC(=O)c1ccc(-c2ncc3cnc(-c4cccc(F)c4)cn23)cc1`, for which the apparent permeability (Papp) was found to be 135 ×10⁻⁶ cm/s.

`COc1ccc(-c2c(-c3cc(C(=O)O)ccn3)ncn2C)cc1` gave a Papp of 2.67 ×10⁻⁶ cm/s. The compound `COc1cc(Cl)c(C)cc1NS(=O)(=O)c1c(C)nc2sccn2c1=O` yielded a Papp of 802 ×10⁻⁶ cm/s.

Consider `COc1cc([C@@H]2c3cc4c(cc3[C@H](O)[C@H]3COC(=O)[C@H]23)OCO4)cc(OC)c1OC`, for which the Papp amounted to 262 ×10⁻⁶ cm/s. For `Fc1ccccc1CNCc1ccc(-c2ccnc3[nH]ccc23)cc1` the value was 266 ×10⁻⁶ cm/s; for `CCn1cc(C(=O)N2CCN(c3cccc(Cl)c3)CC2)c2cc(OC)c(OC)cc2c1=O`, 810 ×10⁻⁶ cm/s. In turn, `COc1ccccc1CNC(=O)CCCn1nc(C)c2c(C)n(-c3ccc(C)cc3)nc2c1=O` registered an apparent permeability (Papp) of 237 ×10⁻⁶ cm/s. For `O=C1CCc2cc(S(=O)(=O)Nc3ccc(F)c(Cl)c3)ccc2N1` the value was 663 ×10⁻⁶ cm/s; for `CC(C)(N)C(=O)N[C@H](COCc1ccccc1)C(=O)N1CCC2(CC1)CN(S(C)(=O)=O)c1ccccc12`, 27.5 ×10⁻⁶ cm/s; for `c1ccc(Nc2cc3c(cn2)CN(Cc2ccsc2)CCN3)cc1`, 15.3 ×10⁻⁶ cm/s. `CCC(CC)c1cc([C@H]2CN3CC[C@H]2C[C@@H]3CNC(=O)Cc2cccs2)nc(-c2ccncc2)n1` came in with a Papp of 320 ×10⁻⁶ cm/s.

In the case of `CCOc1ccccc1C(=O)Nc1ncccc1C(=O)Nc1cccc(S(=O)(=O)C(F)(F)F)c1`, the apparent permeability (Papp) worked out at 656 ×10⁻⁶ cm/s. The compound `COc1ccc(-c2cc(-c3cccc(NC(C)=O)c3)cn3cncc23)cn1` displayed a Papp of 45.4 ×10⁻⁶ cm/s. In turn, `Fc1cccc(CN2CCNc3cc(Nc4ccccc4)ncc3C2)c1` displayed an apparent permeability (Papp) of 5.74 ×10⁻⁶ cm/s. `CCOC(=O)c1cnc2ccc(-c3cncc(NS(=O)(=O)c4ccccc4)c3)cn12`: the Papp was found to be 546 ×10⁻⁶ cm/s. In the case of `O=C(NC1CC1)C1CCCN1C(=O)c1cccc(-c2ccccn2)c1` (centres undefined) it was 76.5 ×10⁻⁶ cm/s; in that of `Cc1ccc(S(=O)(=O)Nc2nc3ccc(C)cc3nc2Nc2ccc3c(c2)OCO3)cc1`, 334 ×10⁻⁶ cm/s. The compound `C[C@H]1CN(C(=O)c2nn(C)c3ccccc23)C[C@@H]1c1nc(-c2ccncc2)no1` showed a Papp of 667 ×10⁻⁶ cm/s. `O=C(c1ccc(-c2ncc3cnc(-c4ccccc4)cn23)cc1)N1CCS(=O)(=O)CC1` gave a Papp of 22.8 ×10⁻⁶ cm/s.

On to `Cc1cc(-c2ccc(C)c(S(=O)(=O)NCC3CCN(Cc4ccc(F)cc4)CC3)c2)on1`, for which the Papp worked out at 486 ×10⁻⁶ cm/s. Consider `O=C(CCCCn1c(=O)[nH]c2ccsc2c1=O)N1CCN(c2cccc(Cl)c2)CC1`, for which the apparent permeability (Papp) stood at 719 ×10⁻⁶ cm/s. For `Cc1ccc(C)c(CN2CCC(CNC(=O)Nc3ccc(Br)cc3F)CC2)c1` the value was 979 ×10⁻⁶ cm/s. `O=C(CCCN1CCC(n2c(=O)[nH]c3ccccc32)CC1)c1ccc(F)cc1` had an apparent permeability coefficient (Papp) of 98.2 ×10⁻⁶ cm/s. For `O=C(Cc1c[nH]c2ncc(-c3ccc(Cl)cc3)cc12)NCc1cccnc1` the value was 818 ×10⁻⁶ cm/s; for `Cc1cccc(S(=O)(=O)c2cn(Cc3ccccc3)c3cc(N4CCCC(C)C4)c(F)cc3c2=O)c1` (centres undefined), 832 ×10⁻⁶ cm/s. In the case of `Cc1ccc(Cl)cc1NS(=O)(=O)c1cc2c(cc1F)NC(=O)CC2`, the Papp is 617 ×10⁻⁶ cm/s. Compound `CCC(C)C1NC(=O)C2CCCN2C(=O)C(CC(C)C)OC(=O)CCNC(=O)C(C)N(C)C(=O)C(C(C)C)N(C)C1=O` (centres undefined) (cyclo([ξLac(3-iPr)]PI[NMeV][NMeA][βAla]); configuration not given here) displayed a Papp of 74 ×10⁻⁶ cm/s.

In the case of `COc1ccc(OC)c(CN2CCNc3cc(Nc4ccccc4)ncc3C2)c1`, the Papp was 2.33 ×10⁻⁶ cm/s. Take `CN(C)CC[C@@H](c1ccc(Cl)cc1)c1ccccn1`: the apparent permeability coefficient (Papp) was found to be 82.5 ×10⁻⁶ cm/s. Consider `CCOC(=O)c1ccc(NC(=O)N2Cc3[nH]cnc3C[C@H]2c2nc(C(C)C)no2)cc1`, for which the Papp is 16.2 ×10⁻⁶ cm/s. Compound `COc1ccc(NC(=O)c2cc(-c3ccc[nH]3)n[nH]2)cc1OC` gave a Papp of 203 ×10⁻⁶ cm/s.
